Test results reported in US20030203819A1, “Synergistically acting herbicidal mixtures” (priority 1998, published 2003).
Like-named read-outs stand apart in the source and are kept apart here.

Assays:
Type in all cases: in vivo
Phalaris spec. = test: Herbicidal action in the field (post-emergence treatment); conditions: Ia.3 75 g/ha a.s.
Text: (§1) The mixtures according to the invention were applied pre- or post-emergence (foliar treatment). The herbicidal compounds of component B were applied in the formulation in which they are present as commercially available product.
(§2) Some of the experiments were greenhouse experiments and some were field trials on mini plots (on a site with sandy loam (pH 6.2 to 7.0) or sandy clay (pH 5.0 to 6.7) as the soil).
(§3) The harmful plants differed with regard to size and developmental state; on average, they were 5 to 20 cm long, depending on the growth habit.
(§4) The herbicidally active compounds of components A) and B) were applied in succession or jointly, in the latter case in some cases as a tank mix and in some cases as a readymix, in the form of emulsions, aqueous solutions or suspensions, the vehicle being water ([…]). In the case of the field trials, application was effected with the aid of a mobile plot sprayer.
(§5) The test period extended over 3 to 8 weeks, and the stands were also observed at later points in time.
(§6) Damage by the herbicidal compositions was evaluated with reference to a scale of 0% to 100% in comparison with untreated control plots. 0 means no damage and 100 means complete destruction of the plants.
(§7) In these examples, the value E at which only an additive effect of the individual active ingredients is to be expected was calculated by the method of S. R. Colby (Calculating synergistic and antagonistic responses of herbicide combinations, Weeds 15, 20 pp (1967).

Digitaria sanguinalis [1] = test: as above; conditions: Ia.3 50 g/ha a.s.
Text: as §1, §2, §3, §4, §5, §6, §7

Geranium carolinianum = test: as above; conditions: Ia.3 150 g/ha a.s.
Text: as §1, §2, §3, §4, §5, §6, §7

Abutilon theophrasti [2] = test: as above
Text: as §1, §2, §3, §4, §5, §6, §7

Brachiaria plantaginea = test: as above; conditions: Ia.3 75 g/ha a.s.
Text: as §1, §2, §3, §4, §5, §6, §7

Ipomoea acuminata = test: as above
Text: as §1, §2, §3, §4, §5, §6, §7

Chenopodium album = test: as above; conditions: Ia.3 50 g/ha a.s.
Text: as §1, §2, §3, §4, §5, §6, §7

[3] = test system: Ipomoea purpurea var. diversifolia; test: as above
Text: as §1, §2, §3, §4, §5, §6, §7

Setaria viridis [4] = test: as above; conditions: Ia.3 100 g/ha a.s.
Text: as §1, §2, §3, §4, §5, §6, §7

Sorghum bicolor = test: as above; conditions: Ia.3 (title: Ia.33) 75 g/ha a.s. (Table 68)
Text: as §1, §2, §3, §4, §5, §6, §7

Anthemis mixta = test: as above; conditions: Ia.3 75 g/ha a.s.
Text: as §1, §2, §3, §4, §5, §6, §7

Bidens pilosa = test: as above
Text: as §1, §2, §3, §4, §5, §6, §7

Cyperus species = test: as above
Text: as §1, §2, §3, §4, §5, §6, §7

Richardia brasiliensis = test: as above; conditions: Ia.3 75 g/ha a.s.
Text: as §1, §2, §3, §4, §5, §6, §7

Echinochloa crus-galli [5] = test: as above; conditions: Ia.3 75 g/ha a.s.
Text: as §1, §2, §3, §4, §5, §6, §7

Stellaria media = test: as above
Text: as §1, §2, §3, §4, §5, §6, §7

Alopecurus myosuroides = test: as above
Text: as §1, §2, §3, §4, §5, §6, §7

Setaria faberi = test: as above
Text: as §1, §2, §3, §4, §5, §6, §7

Lolium perenne = test: as above; conditions: Ia.3 75 g/ha a.s.
Text: as §1, §2, §3, §4, §5, §6, §7

Galium aparine = test: as above
Text: as §1, §2, §3, §4, §5, §6, §7

Digitaria adscendens = test: as above
Text: as §1, §2, §3, §4, §5, §6, §7

Veronica ssp. = test: Herbicidal action in the greenhouse (post-emergence treatment); conditions: Ia.3 31.2 g/ha a.s.
Text: as §1, §2, §3, §4, §5, §6, §7

Abutilon theophrasti [6] = test: as above; conditions: Ia.3 15.6 g/ha a.s.
Text: as §1, §2, §3, §4, §5, §6, §7

Setaria viridis [7] = test: as above; conditions: Ia.3 15.6 g/ha a.s.
Text: as §1, §2, §3, §4, §5, §6, §7

Amaranthus retroflexus [8] = test: as above; conditions: Amaranthus retroflexus, post-emergence
Text: as §1, §2, §3, §4, §5, §6, §7

Ipomoea ssp. = test: as above
Text: as §1, §2, §3, §4, §5, §6, §7

Digitaria sanguinalis [9] = test: Herbicidal action in the greenhouse (pre-emergence treatment)
Text: as §1, §2, §3, §4, §5, §6, §7

Setaria viridis [10] = test: as above; conditions: Ia.3 15.6 g/ha a.s.
Text: as §1, §2, §3, §4, §5, §6, §7

Echinochloa crus-galli [11] = test: as above; conditions: Ia.3 62.5 g/ha a.s.
Text: as §1, §2, §3, §4, §5, §6, §7

Amaranthus retroflexus [12] = test: as above; conditions: Ia.3 31.2 g/ha a.s.
Text: as §1, §2, §3, §4, §5, §6, §7

Cyperus iria = test: as above; conditions: Ia.3 31.2 g/ha a.s.
Text: as §1, §2, §3, §4, §5, §6, §7

Compound Cn1ncc(C(=O)c2ccc(S(C)(=O)=O)c(C3=NOCC3)c2Cl)c1O [Ia.3, 4-[2-chloro-3-(4,5-dihydroisoxazol-3-yl)-4-methylsulfonylbenzoyl]-1-methyl-5-hydroxy-1H-pyrazole] has a Damage (Phalaris spec.) of 20%, a Damage (Digitaria sanguinalis [1]) of 57% and a Damage (Geranium carolinianum) of 30%. For the same compound, the Damage (Abutilon theophrasti [2]; Ia.3 50 g/ha a.s. (Table 5)) was 85%, the Damage (Abutilon theophrasti [2]; Ia.3 75 g/ha a.s. (Table 66)) was 85% and the Damage (Brachiaria plantaginea) was 96%. The “Damage (%)” value (Brachiaria plantaginea; Table 80, Brachiaria plantaginea, field, post-emergence) was 95%, the Damage (Ipomoea acuminata; Ia.3 75 g/ha a.s. (Table 15)) was 25% and the Damage (Ipomoea acuminata; Ia.3 75 g/ha a.s. (Table 29)) was 25%. The Damage (Ipomoea acuminata; Ia.3 75 g/ha a.s. (Table 35)) was 25%, the Damage (Ipomoea acuminata; Ia.3 75 g/ha a.s. (Table 76)) was 23% and the Damage (Chenopodium album) was 92%. For the same compound, the Damage ([3]; Ia.3 75 g/ha a.s. (Table 16)) was 93%, the Damage ([3]; Ia.3 75 g/ha a.s. (Table 65)) was 94% and the Damage (Setaria viridis [4]) was 75%. For the same compound, the Damage (Sorghum bicolor) was 78%, the Damage (Anthemis mixta) was 68% and the Damage (Bidens pilosa; Ia.3 75 g/ha a.s. (Table 13)) was 30%. It also gave a Damage (Bidens pilosa; Ia.3 75 g/ha a.s. (Table 58)) of 25%, a Damage (Bidens pilosa; Ia.3 75 g/ha a.s. (Table 69)) of 25% and a Damage (Cyperus species; Ia.3 75 g/ha a.s. (Table 70)) of 5%. It also gave a Damage (Cyperus species; Ia.3 75 g/ha a.s. (Table 71)) of 0%, a Damage (Richardia brasiliensis) of 70% and a Damage (Echinochloa crus-galli [5]) of 98%. It also gave a Damage (Stellaria media; Ia.3 75 g/ha a.s. (Table 14)) of 91%, a Damage (Stellaria media; Ia.3 75 g/ha a.s. (Table 63)) of 91% and a Damage (Alopecurus myosuroides; Ia.3 7.5 g/ha a.s. (Table 7)) of 10%. For the same compound, the Damage (Alopecurus myosuroides; Ia.3 75 g/ha a.s. (Table 8)) was 10%, the Damage (Setaria faberi; Ia.3 75 g/ha a.s. (Table 59)) was 99% and the Damage (Setaria faberi; Ia.3 75 g/ha a.s. (Table 67)) was 95%. It also gave a Damage (Lolium perenne) of 10%, a Damage (Galium aparine; Ia.3 75 g/ha a.s. (Table 9)) of 63% and a Damage (Galium aparine; Ia.3 75 g/ha a.s. (Table 54)) of 60%. The Damage (Galium aparine; Ia.3 75 g/ha a.s. (Table 64)) was 60%, the Damage (Digitaria adscendens; Ia.3 75 g/ha a.s. (Table 33)) was 90% and the Damage (Digitaria adscendens; Ia.3 75 g/ha a.s. (Table 37)) was 90%. The Damage (Veronica ssp.) was 80%, the Damage (Abutilon theophrasti [6]) was 70% and the Damage (Setaria viridis [7]) was 80%. For the same compound, the pest or weed control at 15.6 g/ha (Amaranthus retroflexus [8]; read-out: Damage, Ia.3 15.6 g/ha a.s. (Table 10)) was 80%, the pest or weed control at 15.6 g/ha (Amaranthus retroflexus [8]; read-out: Damage, Ia.3 15.6 g/ha a.s. (Table 25)) was 55% and the Damage (Ipomoea ssp.; Ia.3 31.2 g/ha a.s. (Table 27)) was 75%. The Damage (Ipomoea ssp.; Ia.3 31.2 g/ha a.s. (Table 74)) was 75%, the Damage (Digitaria sanguinalis [9]; Ia.3 62.5 g/ha a.s. (Table 40)) was 60% and the Damage (Digitaria sanguinalis [9]; Ia.3 62.5 g/ha a.s. (Table 47)) was 60%. For the same compound, the Damage (Setaria viridis [10]) was 20%, the Damage (Echinochloa crus-galli [11]) was 60% and the Damage (Amaranthus retroflexus [12]) was 40%. For the same compound, the Damage (Cyperus iria) was 50%.
